Test results: patent publication US7678803B2, “Quinazoline derivatives for the treatment of cancer” (Serenex, Inc., priority 2006, dated 2010)

Columns and labels:
[1] = system: HSP-90 (heat shock protein 90); test: Determination of affinity for HSP-90 (elution from purine affinity column); conditions: relative binding affinity to HSP-90; also: key: +++: very high; ++: high; +: moderate
Method: Affinity of test compounds for HSP-90 is determined as follows: Protein mixtures obtained from a variety of organ tissues (for example: spleen, liver and lung) are reversibly bound to a purine affinity column to capture purine-binding proteins, especially HSP-90. […] The elution profile of Formula I compounds is determined by 1-dimensional SDS polyacrylamide gel electrophoresis. Gels are stained with a fluorescent stain such as sypro ruby (a highly sensitive fluorescent protein stain that can readily detect less than 1 fmol of total protein, i.e., less than 0.04 ng for a 40 kDa protein) or silver nitrate. The gels are imaged using a standard flat bed gel imager and the amount of protein estimated by densitometry. The percent of HSP-90 protein eluted from the column at each concentration is determined and IC50 values are calculated from these estimates.

[2] = system: PC-3; test: PC-3 cell proliferation assay (WST-1); type: cell-based; conditions: Homo sapiens; inhibitory activity against PC-3 cell proliferation
Method: A panel of cancer cell lines is obtained from the DCTP Tumor Repository, National Cancer Institute (Frederick, Md.) or ATCC (Rockville, Md.). Cell cultures are maintained in Hyclone RPMI 1640 medium (Logan, Utah) supplemented with 10% fetal bovine serum and 20 mM HEPES buffer, final pH 7.2, at 37° C. with a 5% CO2 atmosphere. Cultures are maintained at sub-confluent densities. Human umbilical vein endothelial cells (HUVEC) are purchased from Clonetics, a division of Cambrex (Walkersville, Md.). Cultures are established from cryopreserved stocks using Clonetics EGM-2 medium supplemented with 20 mM HEPES, final pH 7.2, at 37° C. with a 5% CO2 atmosphere.
For proliferation assays, cells are seeded with the appropriate medium into 96 well plates at 1,000-2,500 cells per well, depending on the cell line, and are incubated overnight. The following day, test compound, DMSO solution (negative control), or Actinomycin D (positive control) is added to the appropriate wells as 10× concentrated stocks prepared in phosphate buffered saline. The cell plates are then incubated for an additional 2-5 days, depending on the cell line, to allow proliferation to occur. To measure cell density, 50 μL of WST-1 solution (Roche Applied Science, IN) diluted 1:5 in phosphate buffered saline is added to each well, and the cells incubated for an additional 1-5 hrs., again depending on the cell line. Optical density is determined for each well at […] using a Tecan GeniosPro plate reader (RTP, NC). The percentage of cell growth is determined by comparing the cell growth in the presence of test compounds to the cells treated with DMSO vehicle (control, 100% growth) and cells treated with Actinomycin D (10 μM, 0% growth). […]

| SMILES | Affinity [1] | IC50 [2] [µM] |
| --- | --- | --- |
| Cc1cn(-c2ccc3c(N)ncc(/C(N)=N/O)c3c2)c2c1C(=O)CC(C)(C)C2 [Compound 105, (Z)-1-amino-N′-hydroxy-6-(3,6,6-trimethyl-4-oxo-4,5,6,7-tetrahydro-1H-indol-1-yl)isoquinoline-4-carboximidamide] | +++ | – |
| CC(C)Cc1nn(-c2ccc3c(N)ncnc3c2)c2c1C(=O)CC(C)(C)C2 [Compound 87, 1-(4-aminoquinazolin-7-yl)-3-isobutyl-6,6-dimethyl-6,7-dihydro-1H-indazol-4(5H)-one] | +++ | – |
| Cc1cn(-c2ccc3c(N)ncnc3c2SCCNC(C)(C)C)c2c1C(=O)CC(C)(C)C2 [Compound 110, 1-(4-amino-8-(2-(tert-butylamino)ethylthio)quinazolin-7-yl)-3,6,6-trimethyl-6,7-dihydro-1H-indol-4(5H)-one] | – | 0.5 to 5 |
| CCCCSc1c(-n2cc(C)c3c2CC(C)(C)CC3=O)ccc2c(N)ncnc12 [Compound 54, 1-(4-amino-8-(butylthio)quinazolin-7-yl)-3,6,6-trimethyl-6,7-dihydro-1H-indol-4(5H)-one] | – | 0.5 to 5 |
| Cc1cn(-c2ccc3c(N)ncnc3c2OC2CCOCC2)c2c1C(=O)CC(C)(C)C2 [Compound 133, 1-(4-amino-8-(tetrahydro-2H-pyran-4-yloxy)quinazolin-7-yl)-3,6,6-trimethyl-6,7-dihydro-1H-indol-4(5H)-one] | – | 0.5 to 5 |
| Cc1cn(-c2ccc3c(N)ncnc3c2F)c2c1C(=O)CC(C)(C)C2 [Compound 43, 1-(4-amino-8-fluoroquinazolin-7-yl)-3,6,6-trimethyl-6,7-dihydro-1H-indol-4(5H)-one] | – | 0.5 to 5 |
| CCOc1c(-n2cc(C)c3c2CC(C)(C)CC3=O)ccc2c(N)ncnc12 [Compound 62, 1-(4-amino-8-ethoxyquinazolin-7-yl)-3,6,6-trimethyl-6,7-dihydro-1H-indol-4(5H)-one] | – | 0.5 to 5 |
| Cc1cn(-c2ccc3c(N)ncc(C(=O)O)c3c2)c2c1C(=O)CC(C)(C)C2 [Compound 106, 1-amino-6-(3,6,6-trimethyl-4-oxo-4,5,6,7-tetrahydro-1H-indol-1-yl)isoquinoline-4-carboxylic acid] | ++ | – |
| CC1(C)CC(=O)c2c(C(F)(F)F)nn(-c3ccc4c(N)ncnc4c3)c2C1 [Compound 51, 1-(4-aminoquinazolin-7-yl)-6,6-dimethyl-3-(trifluoromethyl)-6,7-dihydro-1H-indazol-4(5H)-one] | – | 5 to 50 |
| Cc1nn(-c2ccc3c(N)ncnc3c2)c2c1C(=O)CCC2 [Compound 88, 1-(4-aminoquinazolin-7-yl)-3-methyl-6,7-dihydro-1H-indazol-4(5H)-one] | + | – |
| Cc1cn(-c2ccc3c(N)ncc(C(N)=O)c3c2)c2c1C(=O)CC(C)(C)C2 [Compound 104, 1-amino-6-(3,6,6-trimethyl-4-oxo-4,5,6,7-tetrahydro-1H-indol-1-yl)isoquinoline-4-carboxamide] | – | 5 to 50 |
| CC1(C)CC(=O)c2c(CC3CC3)nn(-c3ccc4c(N)ncnc4c3)c2C1 [Compound 83, 1-(4-aminoquinazolin-7-yl)-3-(cyclopropylmethyl)-6,6-dimethyl-6,7-dihydro-1H-indazol-4(5H)-one] | – | 5 to 50 |
| COCCNc1c(-n2cc(C)c3c2CC(C)(C)CC3=O)ccc2c(N)ncnc12 [Compound 56, 1-(4-amino-8-(2-methoxyethylamino)quinazolin-7-yl)-3,6,6-trimethyl-6,7-dihydro-1H-indol-4(5H)-one] | +++ | – |
| COc1cc(COc2cc(-n3cc(C)c4c3CC(C)(C)CC4=O)cc3ncnc(N)c23)cc(OC)c1 [Compound 78, 1-(4-amino-5-(3,5-dimethoxybenzyloxy)quinazolin-7-yl)-3,6,6-trimethyl-6,7-dihydro-1H-indol-4(5H)-one] | – | 0.5 to 5 |
| CC1(C)CC(=O)c2c(C(F)F)nn(-c3ccc4c(N)ncc(C#N)c4c3)c2C1 [Compound 94, 1-amino-6-(3-(difluoromethyl)-6,6-dimethyl-4-oxo-4,5,6,7-tetrahydro-1H-indazol-1-yl)isoquinoline-4-carbonitrile] | – | 0.5 to 5 |
| CCCCSc1cc(-n2cc(C)c3c2CC(C)(C)CC3=O)cc2ncnc(N)c12 [Compound 73, 1-(4-amino-5-(butylthio)quinazolin-7-yl)-3,6,6-trimethyl-6,7-dihydro-1H-indol-4(5H)-one] | – | 5 to 50 |
| Cc1cn(-c2ccc3c(N)ncnc3c2Cl)c2c1C(=O)CC(C)(C)C2 [Compound 80, 1-(4-amino-8-chloroquinazolin-7-yl)-3,6,6-trimethyl-6,7-dihydro-1H-indol-4(5H)-one] | ++ | – |

| SMILES | Affinity [1] | IC50 [2] [µM] |
| --- | --- | --- |
| CC(=O)c1cnc(N)c2ccc(-n3cc(C)c4c3CC(C)(C)CC4=O)cc12 [Compound 107, 1-(4-acetyl-1-aminoisoquinolin-6-yl)-3,6,6-trimethyl-6,7-dihydro-1H-indol-4(5H)-one] | – | 0.5 to 5 |
| CCCCSc1c(-n2cc(C)c3c2CC(C)CC3=O)ccc2c(N)ncnc12 (stereo not drawn) [Compound 72, 1-(4-amino-8-(butylthio)quinazolin-7-yl)-3,6-dimethyl-6,7-dihydro-1H-indol-4(5H)-one] | ++ | – |
| Cc1cn(-c2ccc3c(N)ncc(N)c3c2)c2c1C(=O)CC(C)(C)C2 [Compound 121, 1-(1,4-diaminoisoquinolin-6-yl)-3,6,6-trimethyl-6,7-dihydro-1H-indol-4(5H)-one] | – | 5 to 50 |
| Cc1cn(-c2ccc3c(N)ncnc3c2F)c2c1C(=O)CC(C)C2 (stereo not drawn) [Compound 65, 1-(4-amino-8-fluoroquinazolin-7-yl)-3,6-dimethyl-6,7-dihydro-1H-indol-4(5H)-one] | – | 0.5 to 5 |
| Cc1c2c(n(-c3ccc4c(N)ncnc4c3)c1C)CC(C)(C)CC2=O [Compound 92, 1-(4-aminoquinazolin-7-yl)-2,3,6,6-tetramethyl-6,7-dihydro-1H-indol-4(5H)-one] | – | < 0.5 |
| Cc1nn(-c2ccc3c(N)ncc(Br)c3c2)c2c1C(=O)CC(C)(C)C2 [Compound 47, 1-(1-amino-4-bromoisoquinolin-6-yl)-3,6,6-trimethyl-6,7-dihydro-1H-indazol-4(5H)-one] | – | 5 to 50 |
| Cc1cn(-c2ccc3c(O)ncnc3c2)c2c1C(=O)CC(C)(C)C2 [Compound 90, 1-(4-hydroxyquinazolin-7-yl)-3,6,6-trimethyl-6,7-dihydro-1H-indol-4(5H)-one] | – | < 0.5 |
| Cc1cn(-c2cnc3c(N)ncnc3c2)c2c1C(=O)CC(C)(C)C2 [Compound 66, 1-(4-aminopyrido[3,2-d]pyrimidin-7-yl)-3,6,6-trimethyl-6,7-dihydro-1H-indol-4(5H)-one] | – | 0.5 to 5 |
| Cc1cn(-c2ccc3c(C)nc(N)nc3c2)c2c1C(=O)CC(C)(C)C2 [Compound 128, 1-(2-amino-4-methylquinazolin-7-yl)-3,6,6-trimethyl-6,7-dihydro-1H-indol-4(5H)-one] | – | < 0.5 |
| Cc1cn(-c2cc(F)c3c(N)nc(N)nc3c2)c2c1C(=O)CC(C)(C)C2 [Compound 126, 1-(2,4-diamino-5-fluoroquinazolin-7-yl)-3,6,6-trimethyl-6,7-dihydro-1H-indol-4(5H)-one] | – | 0.5 to 5 |
| Cc1cn(-c2ccc3c(N)ncnc3c2SCCNCC(C)(C)C)c2c1C(=O)CC(C)(C)C2 [Compound 81, 1-(4-amino-8-(2-(neopentylamino)ethylthio)quinazolin-7-yl)-3,6,6-trimethyl-6,7-dihydro-1H-indol-4(5H)-one] | – | < 0.5 |
| Cc1cn(-c2ccc3c(N)ncnc3c2)c2c1C(=O)CC(C)(C)C2 [Compound 39, 1-(4-aminoquinazolin-7-yl)-3,6,6-trimethyl-6,7-dihydro-1H-indol-4(5H)-one] | – | 0.5 to 5 |
| Cc1cn(-c2cnc3c(N)nc(N)nc3c2)c2c1C(=O)CC(C)(C)C2 [Compound 139, 1-(2,4-diaminopyrido[3,2-d]pyrimidin-7-yl)-3,6,6-trimethyl-6,7-dihydro-1H-indol-4(5H)-one] | – | < 0.5 |
| Cc1cc2c(n1-c1cnc3c(N)ncnc3c1)CC(C)(C)CC2=O [Compound 38, 1-(4-aminopyrido[3,2-d]pyrimidin-7-yl)-2,6,6-trimethyl-6,7-dihydro-1H-indol-4(5H)-one] | – | 5 to 50 |
| C/C(=N\O)c1cnc(N)c2ccc(-n3cc(C)c4c3CC(C)(C)CC4=O)cc12 [Compound 102, (E)-1-(1-amino-4-(1-(hydroxyimino)ethyl)isoquinolin-6-yl)-3,6,6-trimethyl-6,7-dihydro-1H-indol-4(5H)-one] | – | 5 to 50 |
| Cc1cn(-c2ccc3c(N)ncnc3c2OCCN(C)C)c2c1C(=O)CC(C)(C)C2 [Compound 52, 1-(4-amino-8-(2-(dimethylamino)ethoxy)quinazolin-7-yl)-3,6,6-trimethyl-6,7-dihydro-1H-indol-4(5H)-one] | – | 5 to 50 |
